Results as given in patent publication EP4737453A1, “NOVEL SELENOPHENE DERIVATIVES” (Aigen Sciences Inc., priority 2023, dated 2025).

Columns and labels:
[1] = target: T1, SOS1 and KRAS G12D interaction (Homo sapiens, UniProt Q07889); type: biochemical
T1 sequence (Q07889 564-1049 limits assumed): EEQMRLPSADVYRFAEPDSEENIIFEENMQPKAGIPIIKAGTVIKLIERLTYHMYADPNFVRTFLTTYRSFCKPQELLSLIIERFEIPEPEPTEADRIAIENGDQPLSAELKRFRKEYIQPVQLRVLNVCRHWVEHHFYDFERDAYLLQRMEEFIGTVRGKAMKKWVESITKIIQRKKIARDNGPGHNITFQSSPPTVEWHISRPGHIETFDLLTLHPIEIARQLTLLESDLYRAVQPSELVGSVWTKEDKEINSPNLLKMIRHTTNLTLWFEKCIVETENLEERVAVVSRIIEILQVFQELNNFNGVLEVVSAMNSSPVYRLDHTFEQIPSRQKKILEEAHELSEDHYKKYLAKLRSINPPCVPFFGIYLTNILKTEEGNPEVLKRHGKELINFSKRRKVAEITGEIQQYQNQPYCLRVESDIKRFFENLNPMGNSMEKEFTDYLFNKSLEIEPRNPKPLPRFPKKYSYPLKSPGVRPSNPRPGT

[2] = system: NCI-H358; test: Cell Growth Inhibition Assay (3D CellTiter-Glo); type: cell-based; conditions: Homo sapiens, NCI-H358, 288 h, read-out: Cell growth IC50
Method: Cell Growth Inhibition Assay
In this experimental example, the cell growth inhibitory effect of compounds according to the present invention and positive control compounds in tumor cell lines was examined.
The cell culture medium containing the compound was replaced by 100 µL every 3 days. Luminescence analysis was performed using the 3D CellTiter-Glo Luminescent Cell Viability Assay Kit (Promega, USA) (Promega catalog number G9681). […] The percent cell growth inhibition rate was calculated from the measured relative luminescence unit (RLU) as follows. Inhibition rate = 1−((RLU compound−RLU blank)/(RLU control−RLU blank)) X 100 [formula]

[3] = system: NCI-H358 cell line; test: Combination effect with targeted anticancer agent, cell viability (CellTiter-Glo, combination index), H358; type: cell-based; conditions: H358 cells, 7 days, Example 1 compound 0.0001 to 0.1 µM, Fig. 1
Method: Test for evaluating the combination effect of targeted anticancer agent- Cell Viability
In this experimental example, we examined whether the compound according to the present invention has a synergistic effect on cancer cell death when used in combination with a target anticancer agent related to another RAS signal transduction pathway.
NCI-H358 cell line (ATCC catalog no. CRL-5807, USA) or EGFR exon 19 deletion cancer cell line PC-9 (Riken, Japan catalog no. RCB4455) were seeded in a well plate (500 cells per well for H358 and 50 cells per well for PC-9) in RPMI1640 (Gibco, USA catalog no. 22400-089) medium containing 10% fetal bovine serum (Excel Bio, USA catalog no. FSP500) and cultured for one day at 37°C under 5% CO2 conditions. […] Cell survival analysis was performed by luminescence analysis using the Promega CellTiter-Glo Luminescent Cell Viability Assay Kit (Promega, catalog number G7573), and luminescence was measured using a PerkinElmer 2014 EnVision plate reader. The inhibition rate was calculated from the measured relative luminescence value in the same manner as in Experimental Example 3, and the combination index (CI) between the compound of the present invention and the target anticancer agent was calculated using the following equation. […]

CNCc1ccccc1-c1c[se]c([C@@H](C)Nc2nc(C)nc3cc(OC)c(OC)cc23)c1 [Example 1, (R)-6,7-dimethoxyl-2-methyl-N-(1-(4-(2-((methylamino)methyl)phenyl)selenophen-2-yl)ethyl)quinazolin-4-amine]
IC50 [1]: 8.4 nM | IC50 [2]: 20.7 nM | synergistic effect inhibiting cell growth in combination with sotorasib ([3]; sotorasib 0.001 to 1 µM): strong synergistic effect | synergistic effect inhibiting cell growth in combination with trametinib ([3]; trametinib 0.001 to 0.1 µM): strong synergistic effect
